PubChem BioAssay AID248 (DTP/NCI, 2004)
Where “and” joins values, the source holds several entries; their conditions need not be identical. Identical values can stand only once. Toxic doses and inconclusive results are not listed. Rule as the data show it: active = T/C of 150% or more; inactive = T/C below 125%. Peptide text beside a SMILES is read from it. * marks the point of attachment. Cbz = O=C(OCc1ccccc1)*

System: L1210 leukemia ip in BDF1 mice, survival T/C
Experiment: NCI In Vivo Anticancer Drug Screen. Data for tumor model L1210 Leukemia (intraperitoneal) in B6D2F1 (BDF1) mice
Conditions: endpoint: mean survival time, higher = longer survival
Method in brief: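 Each compound was tested against a transplantable tumor grown in mice. The endpoint was survival, with treated animals benchmarked against vehicle controls as a simple ratio.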

[1] = dose: 75.0 mg/kg/injection, schedule: Q01DX001 (ip), vehicle: saline
[2] = dose: 100.0 mg/kg/injection, schedule: Q04DX003 (ip), vehicle: saline with Tween-80
[3] = dose: 200.0 mg/kg/injection, schedule: Q04DX003 (ip), vehicle: saline with Tween-80
[4] = dose: 400.0 mg/kg/injection, schedule: Q04DX003 (ip), vehicle: saline with Tween-80
[5] = dose: 100.0 mg/kg/injection, schedule: Q04DX003 (ip), vehicle: Klucel (hydroxypropylcellulose) (HPC)

Measured: T/C

CN(C)c1ccc(C(N)=O)cn1
inactive: dose: 16.5 mg/kg/injection, schedule: Q01DX009 (ip), vehicle: saline with Tween-80 102 % of control | dose: 29.0 mg/kg/injection, schedule: Q04DX003 (ip), vehicle: saline 112 % of control | dose: 45.0 mg/kg/injection, schedule: Q04DX003 (ip), vehicle: saline 120 % of control | dose: 66.0 mg/kg/injection, schedule: Q04DX003 (ip), vehicle: saline 113 % of control | dose: 100.0 mg/kg/injection, schedule: Q04DX003 (ip), vehicle: saline 114 % of control | dose: 200.0 mg/kg/injection, schedule: Q04DX003 (ip), vehicle: saline 102 % of control

Oc1cccc(/C=N/NC(=S)Nc2ccccc2)c1
inactive: dose: 100.0 mg/kg/injection, schedule: Q01DX009 (ip), vehicle: Klucel (hydroxypropylcellulose) (HPC) 104 % of control | dose: 200.0 mg/kg/injection, schedule: Q01DX009 (ip), vehicle: Klucel (hydroxypropylcellulose) (HPC) 96 % of control | dose: 400.0 mg/kg/injection, schedule: Q01DX009 (ip), vehicle: Klucel (hydroxypropylcellulose) (HPC) 93 % of control

NCCCSc1ccc(Br)cc1
inactive: dose: 75.0 mg/kg/injection, schedule: Q01DX001 (ip), vehicle: other 102 % of control | dose: 150.0 mg/kg/injection, schedule: Q01DX001 (ip), vehicle: other 96 % of control | dose: 300.0 mg/kg/injection, schedule: Q01DX001 (ip), vehicle: other 92 % of control

NC(CNC(=O)Oc1ccccc1)C(=O)O (stereo unspecified)
inactive: dose: 100.0 mg/kg/injection, schedule: Q01DX001 (ip), vehicle: saline with Tween-80 95 % of control | dose: 200.0 mg/kg/injection, schedule: Q01DX001 (ip), vehicle: saline with Tween-80 103 % of control | dose: 400.0 mg/kg/injection, schedule: Q01DX001 (ip), vehicle: saline with Tween-80 92 % of control

CNc1ccc(C(=O)O)c(Cl)c1
inactive: [1] 95 % of control | dose: 75.0 mg/kg/injection, schedule: Q04DX003 (ip), vehicle: saline 97 % of control | dose: 150.0 mg/kg/injection, schedule: Q01DX001 (ip), vehicle: saline 98 % of control | dose: 150.0 mg/kg/injection, schedule: Q04DX003 (ip), vehicle: saline 111 % of control | dose: 300.0 mg/kg/injection, schedule: Q01DX001 (ip), vehicle: saline 93 % of control | dose: 300.0 mg/kg/injection, schedule: Q04DX003 (ip), vehicle: saline 103 % of control

COP(=O)(OC)C(OC(=O)C(C)(C)SC(C)=S)=C(C)C
inactive: [2] 103 % of control | [3] 96 % of control | [4] 94 % of control

CC(=O)OC1CC2C(=O)CC1(C)C2(C)C (stereo unspecified)
inactive: [1] 102 % of control

C/C(=N/Nc1ccccc1)c1ccccn1
inactive: [5] 98 % of control | dose: 200.0 mg/kg/injection, schedule: Q04DX003 (ip), vehicle: Klucel (hydroxypropylcellulose) (HPC) 96 % of control | dose: 400.0 mg/kg/injection, schedule: Q04DX003 (ip), vehicle: Klucel (hydroxypropylcellulose) (HPC) 98 % of control

CCOC(=O)CNC(=O)CNC(=O)CNC(=O)OCc1ccccc1 (Cbz-Gly-Gly-Gly-OEt)
inactive: dose: 100.0 mg/kg/injection, schedule: Q01DX001 (ip), vehicle: saline 93 % of control | dose: 200.0 mg/kg/injection, schedule: Q01DX001 (ip), vehicle: saline 88 % of control | dose: 400.0 mg/kg/injection, schedule: Q01DX001 (ip), vehicle: saline 94 % of control

CC(C(=O)c1ccccc1)C(Cl)c1ccccc1 (stereo unspecified)
inactive: dose: 100.0 mg/kg/injection, schedule: Q01DX009 (ip), vehicle: saline with Tween-80 102 % of control | [2] 104 % of control | dose: 200.0 mg/kg/injection, schedule: Q01DX009 (ip), vehicle: saline with Tween-80 106 % of control | [3] 107 % of control | dose: 400.0 mg/kg/injection, schedule: Q01DX009 (ip), vehicle: saline with Tween-80 102 % of control | [4] 104 % of control

CC/[N+]([O-])=C/c1ncc([N+](=O)[O-])n1C
inactive: dose: 100.0 mg/kg/injection, schedule: Q04DX002 (ip), vehicle: saline 114 % of control | dose: 200.0 mg/kg/injection, schedule: Q04DX002 (ip), vehicle: saline 118 % of control | dose: 400.0 mg/kg/injection, schedule: Q04DX002 (ip), vehicle: saline 114 % of control

CC([NH-])C[NH-].[Cl][Pd][Cl] (stereo unspecified)
inactive: dose: 6.25 mg/kg/injection, schedule: Q04DX002 (ip), vehicle: Klucel (hydroxypropylcellulose) (HPC) 93 % of control | dose: 12.5 mg/kg/injection, schedule: Q04DX002 (ip), vehicle: Klucel (hydroxypropylcellulose) (HPC) 102 % of control and 93 % of control | dose: 12.5 mg/kg/injection, schedule: Q04DX003 (ip), vehicle: Klucel (hydroxypropylcellulose) (HPC) 96 % of control | dose: 25.0 mg/kg/injection, schedule: Q04DX002 (ip), vehicle: Klucel (hydroxypropylcellulose) (HPC) 90 % of control | dose: 25.0 mg/kg/injection, schedule: Q04DX003 (ip), vehicle: Klucel (hydroxypropylcellulose) (HPC) 94 % of control | dose: 50.0 mg/kg/injection, schedule: Q04DX002 (ip), vehicle: Klucel (hydroxypropylcellulose) (HPC) 90 % of control | dose: 50.0 mg/kg/injection, schedule: Q04DX003 (ip), vehicle: Klucel (hydroxypropylcellulose) (HPC) 91 % of control

CCN(CC)C(=O)Oc1ccc(C(C)=O)cc1
inactive: dose: 100.0 mg/kg/injection, schedule: Q04DX002 (ip), vehicle: saline with Tween-80 103 % of control | dose: 200.0 mg/kg/injection, schedule: Q04DX002 (ip), vehicle: saline with Tween-80 100 % of control | dose: 400.0 mg/kg/injection, schedule: Q04DX002 (ip), vehicle: saline with Tween-80 114 % of control

CCCNC(=O)c1ccc(NC(=O)Nc2ccc(C3=NCCN3)cc2)cc1NC(=O)Nc1ccc(C2=NCCN2)cc1
inactive: dose: 25.0 mg/kg/injection, schedule: Q01DX Z (ip), vehicle: carboxymethylcellulose (CMC) 113 % of control | dose: 50.0 mg/kg/injection, schedule: Q01DX Z (ip), vehicle: carboxymethylcellulose (CMC) 117 % of control | dose: 100.0 mg/kg/injection, schedule: Q01DX Z (ip), vehicle: carboxymethylcellulose (CMC) 108 % of control and 113 % of control

Nc1nnnc2c1ncn2C1OC(CO)C(O)C1O (stereo unspecified)
inactive: dose: 1.6 mg/kg/injection, schedule: Q01DX009 (ip), vehicle: saline 120 % of control | dose: 2.8 mg/kg/injection, schedule: Q01DX009 (ip), vehicle: saline 108 % of control | dose: 4.8 mg/kg/injection, schedule: Q01DX009 (ip), vehicle: saline 117 % of control | dose: 9.5 mg/kg/injection, schedule: Q01DX001 (ip), vehicle: saline 106 % of control | dose: 12.5 mg/kg/injection, schedule: Q04DX002 (ip), vehicle: saline 92 % of control | dose: 14.0 mg/kg/injection, schedule: Q01DX009 (ip), vehicle: saline 123 % of control | dose: 19.0 mg/kg/injection, schedule: Q01DX001 (ip), vehicle: saline 103 % of control and 117 % of control | dose: 25.0 mg/kg/injection, schedule: Q04DX002 (ip), vehicle: saline 100 % of control | dose: 38.0 mg/kg/injection, schedule: Q01DX001 (ip), vehicle: saline 106 % of control and 120 % of control | dose: 38.0 mg/kg/injection, schedule: Q01DX009 (ip), vehicle: saline 105 % of control | dose: 50.0 mg/kg/injection, schedule: Q04DX002 (ip), vehicle: saline 103 % of control | [1] 106 % of control

CCCCNC(=O)C(F)(F)F
inactive: dose: 100.0 mg/kg/injection, schedule: Q01DX001 (ip), vehicle: other 100 % of control | dose: 200.0 mg/kg/injection, schedule: Q01DX001 (ip), vehicle: other 98 % of control | dose: 400.0 mg/kg/injection, schedule: Q01DX001 (ip), vehicle: other 98 % of control

CS(=O)(=O)c1ncc2cnccn12
inactive: dose: 100.0 mg/kg/injection, schedule: Q01DX009 (ip), vehicle: water 101 % of control | dose: 100.0 mg/kg/injection, schedule: Q04DX003 (ip), vehicle: water 109 % of control | dose: 200.0 mg/kg/injection, schedule: Q01DX009 (ip), vehicle: water 109 % of control | dose: 400.0 mg/kg/injection, schedule: Q04DX003 (ip), vehicle: water 110 % of control

COc1cc(N(CCCl)CCCl)ccc1C=Nc1cc(Cl)ccc1-n1ccnc1
inactive: dose: 100.0 mg/kg/injection, schedule: Q04DX002 (ip), vehicle: Klucel (hydroxypropylcellulose) (HPC) 95 % of control | dose: 200.0 mg/kg/injection, schedule: Q04DX002 (ip), vehicle: Klucel (hydroxypropylcellulose) (HPC) 95 % of control | dose: 400.0 mg/kg/injection, schedule: Q04DX002 (ip), vehicle: Klucel (hydroxypropylcellulose) (HPC) 87 % of control

NC(=O)N/N=C1\CC2C=CCC12 (stereo unspecified)
inactive: [2] 94 % of control | [3] 92 % of control | [4] 108 % of control

O=[N+]([O-])c1cc(Cl)cc2c1-c1c(Cl)cc(Cl)cc1/C2=N/O
inactive: dose: 25.0 mg/kg/injection, schedule: Q01DX009 (ip), vehicle: Klucel (hydroxypropylcellulose) (HPC) 106 % of control | dose: 50.0 mg/kg/injection, schedule: Q01DX009 (ip), vehicle: Klucel (hydroxypropylcellulose) (HPC) 94 % of control | [5] 101 % of control
